Experiments:
CYP3A4 [1] = assay: Phase 1 clinical DDI study, midazolam probe with or without relacorilant; assay type: in vivo, human
CYP2C8 = biological target: T1, CYP2C8 (Homo sapiens, UniProt P10632); assay: Phase 1 clinical DDI study, pioglitazone probe with or without relacorilant; assay type: in vivo
T1 sequence (P10632 1-490): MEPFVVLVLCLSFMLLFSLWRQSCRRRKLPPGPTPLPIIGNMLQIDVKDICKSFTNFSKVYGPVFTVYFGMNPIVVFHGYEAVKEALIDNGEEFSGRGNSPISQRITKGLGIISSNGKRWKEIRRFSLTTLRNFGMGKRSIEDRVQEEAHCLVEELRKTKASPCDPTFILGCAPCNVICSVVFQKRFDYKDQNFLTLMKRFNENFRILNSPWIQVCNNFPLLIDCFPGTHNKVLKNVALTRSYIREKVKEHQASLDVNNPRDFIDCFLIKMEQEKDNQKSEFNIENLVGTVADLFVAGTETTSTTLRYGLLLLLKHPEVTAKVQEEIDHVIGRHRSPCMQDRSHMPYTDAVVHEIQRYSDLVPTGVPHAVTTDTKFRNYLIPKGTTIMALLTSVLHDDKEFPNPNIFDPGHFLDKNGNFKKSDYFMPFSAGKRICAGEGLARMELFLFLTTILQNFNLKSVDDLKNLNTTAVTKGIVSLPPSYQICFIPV

CYP1A2 messenger RNA = assay: In vitro CYP induction assay, messenger RNA in cryopreserved human hepatocytes; assay type: in vitro ADME; details: 3 donors
CYP2B6 messenger RNA = assay: as above; assay type: in vitro ADME; details: 3 donors
CYP3A4 [2] = biological target: CYP3A4 (Homo sapiens, UniProt P08684); assay: biochemical
progesterone receptor = details: background statement; cited from earlier work
CYP2C9 = CYP2C9 (Homo sapiens, UniProt P11712); details: background statement; cited from earlier work
[3] = both, human, plasma, po, 2.5 mg, probe midazolam
[4] = both, human, plasma, po, 15 mg, probe pioglitazone
[5] = pioglitazone + relacorilant (day 15) compared to pioglitazone alone (day 2)
[6] = pioglitazone + relacorilant (day 15) vs pioglitazone alone (day 2)

Sequence of CYP3A4 (Homo sapiens, UniProt P08684) (P08684 whole entry): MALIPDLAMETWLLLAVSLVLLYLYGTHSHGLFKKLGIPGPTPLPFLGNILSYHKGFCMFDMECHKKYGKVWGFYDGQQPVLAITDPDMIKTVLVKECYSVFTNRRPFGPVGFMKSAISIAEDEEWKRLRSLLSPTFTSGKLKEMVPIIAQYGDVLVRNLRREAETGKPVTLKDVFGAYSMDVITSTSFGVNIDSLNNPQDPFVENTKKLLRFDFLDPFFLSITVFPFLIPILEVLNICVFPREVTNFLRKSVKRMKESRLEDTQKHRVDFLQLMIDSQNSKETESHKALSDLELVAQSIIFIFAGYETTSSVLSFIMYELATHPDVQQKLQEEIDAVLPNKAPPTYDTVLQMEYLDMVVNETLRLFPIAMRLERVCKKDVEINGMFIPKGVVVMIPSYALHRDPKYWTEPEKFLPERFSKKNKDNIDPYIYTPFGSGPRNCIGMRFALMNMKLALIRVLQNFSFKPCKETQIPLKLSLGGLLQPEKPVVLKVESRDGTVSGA
Sequence of CYP2C9 (P11712 whole entry): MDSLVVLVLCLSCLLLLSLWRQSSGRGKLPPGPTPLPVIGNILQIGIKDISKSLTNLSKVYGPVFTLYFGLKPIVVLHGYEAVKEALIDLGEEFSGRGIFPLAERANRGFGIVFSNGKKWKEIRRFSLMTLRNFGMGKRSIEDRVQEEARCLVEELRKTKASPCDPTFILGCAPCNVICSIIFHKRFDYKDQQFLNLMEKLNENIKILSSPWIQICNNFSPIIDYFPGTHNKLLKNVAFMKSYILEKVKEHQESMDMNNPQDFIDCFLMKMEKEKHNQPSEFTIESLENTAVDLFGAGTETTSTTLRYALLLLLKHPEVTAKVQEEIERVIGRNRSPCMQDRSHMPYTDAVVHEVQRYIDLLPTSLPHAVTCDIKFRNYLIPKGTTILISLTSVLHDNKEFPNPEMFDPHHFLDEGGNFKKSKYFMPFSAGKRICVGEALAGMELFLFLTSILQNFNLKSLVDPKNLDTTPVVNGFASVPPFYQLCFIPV

## Cc1ncc2n1-c1ccc(Cl)cc1C(c1ccccc1F)=NC2 [Midazolam, midazolam]
CYP3A4 [1]; both, human, plasma, po, 2.5 mg
  AUC(0-inf): 36.4 ng·h/mL
CYP3A4 [1]; [3]
  AUC(0-t): 34.2 ng·h/mL
  Cmax: 12.7 ng/mL

## CCc1ccc(CCOc2ccc(CC3SC(=O)NC3=O)cc2)nc1 (centres unmarked) [Pioglitazone, pioglitazone]
CYP2C8; both, human, plasma, po, 15 mg
  AUC(0-inf): 5650 ng·h/mL
CYP2C8; [4]
  AUC(0-t): 5530 ng·h/mL
  Cmax: 525 ng/mL
  Tmax: 2 h
  half-life: 10.4 h
CYP2C8; [5]
  GLSM AUCinf lower with relacorilant than alone, pioglitazone: ~25%
  GLSM AUClast lower with relacorilant than alone, pioglitazone: ~25%
  GLSM Cmax lower with relacorilant than alone, pioglitazone: approximately 22%
CYP2C8; [6]
  AUCinf GLSM Ratio (90%CI), pioglitazone: 0.748 (0.681‐0.822)
  AUClast GLSM Ratio (90%CI), pioglitazone: 0.747 (0.681‐0.820)
  Cmax GLSM Ratio (90%CI), pioglitazone: 0.778 (0.697‐0.870)

## Cn1cc(S(=O)(=O)N2CCC3=Cc4c(cnn4-c4ccc(F)cc4)C[C@]3(C(=O)c3cc(C(F)(F)F)ccn3)C2)cn1 [Relacorilant, (R)‐(1‐(4‐fluorophenyl)‐6‐((1‐methyl‐1H‐pyrazol‐4‐yl)sulfonyl)‐4,4a,5,6,7,8‐hexahydro‐1H‐pyrazolo[3,4‐g]isoquinolin‐4a‐yl)(4‐(trifluoromethyl)pyridin‐2‐yl)methanone]
CYP1A2 messenger RNA
  induction of CYP1A2 (in words): dose‐responsive induction of CYP1A2 was observed in all donors
CYP2B6 messenger RNA
  induction of CYP2B6 (in words): No induction of CYP2B6 was observed in any donor
CYP3A4 [2]
  IC50: 1.32 µM
Progesterone receptor
  affinity for the progesterone receptor (in words): no affinity for the progesterone receptor
CYP3A4 [1]; healthy subjects, relacorilant 350 mg once daily, midazolam probe
  CYP3A inhibition in vivo (in words): strong CYP3A inhibitor

## CC#C[C@]1(O)CC[C@H]2[C@@H]3CCC4=CC(=O)CCC4=C3[C@@H](c3ccc(N(C)C)cc3)C[C@@]21C [mifepristone]
CYP2C9
  CYP2C9 inhibition in vivo (in words): inhibits both CYP2C8 and CYP2C9 in vivo

Source: article PMC7818505 (Journal of Clinical Pharmacology, 2020)
